{"source": "patent EP4778931A1", "about": "“ULK1 INHIBITOR, PREPARATION METHOD THEREFOR AND USE THEREOF” (Dovetree Medicines Unus, Inc., priority 2023, dated 2025)", "system": "autophagy level in HEK293 GFP-LC3 stably transfected cells", "experiment": "Inhibition of autophagy level in HEK293 GFP-LC3 stably transfected cells (GFP fluorescence, high-content imaging)", "assay_type": "cell-based", "settings": "Homo sapiens, Torin1 100 nM, 24 h incubation, 8 concentrations, highest 10 µM, read-out: Autophagic Flux IC50", "experimental": "The inhibitory effect of the compound of the present disclosure on intracellular autophagy was evaluated by testing the impact of the compound of the present disclosure on the fluorescence intensity of HEK293 GFP-LC3 stably transfected cells.\nHEK293 GFP-LC3 stably transfected cells (HEK293, ATCC, CRL-1573) were cultured in a complete medium, namely, a DMEM medium (Gibco, 11965-092) containing 10% fetal bovine serum (Corning, 35-081-CV), 1% double antibody (Gibco, 15140-122) and 1 µg/mL of Puromycin (Invitrogen- A1113803).\nCell plating: HEK293 GFP-LC3 stably transfected cells at 80% growth confluence were digested, diluted with a medium free of Puromycin, and added to a 96-well cell culture plate (Geriner, 655090) at 12,000 cells per well, with a volume of 90 µL.\nCompound incubation: 5 µL of Torin1 and 5 µL of a serially diluted compound were added to each well so that the highest concentration of the compound in the reaction system was 10 µM. 3-fold serial dilution with 8 concentrations was performed, and the final concentration of Torin1 was 100 nM. The DMSO content in the system was 0.1%. The positive control wells (PC) contain DMSO at a final concentration of 0.1%, and the negative control wells (NC) contain 100 nM of Torin1 with 0.1% of DMSO. The reaction plate was placed in an incubator at 37°C in 5% CO2, and was incubated for 24 h.\nCell staining and fixation: The cell plate was taken out, and 10 µL of Hochest33342 nuclear staining reagent (Thermo, H1399) was added to each well, followed by incubation at 37°C in 5% CO2 for 30 min. After the incubation was completed, the cell supernatant was discarded, and 100 µL of pre-cooled 4% paraformaldehyde was added to each well to fix the cells for 15 min. Then, the fixative was discarded, and 100 µL of PBS was added to each well. Images were captured for analysis using a high-content cell imaging analyzer (PE, Operetta CLS), and GFP fluorescence signals were collected for data processing.\nThe average GFP fluorescence signal intensity in the reaction wells was collected for the calculation of the inhibition ratio: [formula]\nThe dose-effect curve was fitted using the log(inhibitor) vs. response -Variable slope of Graphpad Prism8, thereby affording the IC50 value of each compound for inhibiting autophagy level in HEK293 GFP-LC3 stably transfected cells."}
{"compound": "CN1CCN2c3ccc(Nc4ncc(C(F)(F)F)c(N5CCN(C)C(=O)C5)n4)cc3COCC2C1", "note": "(centres unmarked) [Compound 1]", "values": [{"measurement": "IC50", "value": "> 1000", "unit": "nM"}]}
{"compound": "CN1CCN2c3ccc(Nc4ncc(C(F)(F)F)c(N5CCC6(CCN(C)C6)CC5)n4)cc3COCC2C1", "note": "(centres unmarked) [Compound 2]", "values": [{"measurement": "IC50", "value": "100 to 1000", "unit": "nM"}]}
{"compound": "CN1CCN2c3ccc(Nc4ncc(C(F)(F)F)c(OCCCN5CCCCC5=O)n4)cc3COCC2C1", "note": "(centres unmarked) [Compound 3]", "values": [{"measurement": "IC50", "value": "100 to 1000", "unit": "nM"}]}
{"compound": "CN1CCN2c3ccc(Nc4ncc(C(F)(F)F)c(N5CCC(n6cccn6)CC5)n4)cc3COCC2C1", "note": "(centres unmarked) [Compound 4]", "values": [{"measurement": "IC50", "value": "100 to 1000", "unit": "nM"}]}
{"compound": "CN1CCN2c3ccc(Nc4ncc(C(F)(F)F)c(N5CCC6(CCN(C)C6)C5)n4)cc3COCC2C1", "note": "(centres unmarked) [Compound 5]", "values": [{"measurement": "IC50", "value": "100 to 1000", "unit": "nM"}]}
{"compound": "CN1CCN2c3ccc(Nc4ncc(C(F)(F)F)c(N[C@H]5CC[C@@H](n6cccn6)CC5)n4)cc3COCC2C1", "note": "(some centres unmarked) [Compound 6]", "values": [{"measurement": "IC50", "value": "100 to 1000", "unit": "nM"}]}
{"compound": "CN1CCN2c3ccc(Nc4ncc(C(F)(F)F)c(NCCCn5cccn5)n4)cc3COCC2C1", "note": "(centres unmarked) [Compound 8]", "values": [{"measurement": "IC50", "value": "100 to 1000", "unit": "nM"}]}
{"compound": "CN1CCN2c3ccc(Nc4ncc(C(F)(F)F)c(OCCCc5ccccc5C#N)n4)cc3COCC2C1", "note": "(centres unmarked) [Compound 9]", "values": [{"measurement": "IC50", "value": "100 to 1000", "unit": "nM"}]}
{"compound": "CN1CCN2c3ccc(Nc4ncc(C(F)(F)F)c(NCCCN5CCCCC5=O)n4)cc3COCC2C1", "note": "(centres unmarked) [Compound 11]", "values": [{"measurement": "IC50", "value": "> 1000", "unit": "nM"}]}
{"compound": "CN1CCN2c3ccc(Nc4ncc(C(F)(F)F)c(OCCCN5CCCCC5=O)n4)cc3OCC2C1", "note": "(centres unmarked) [Compound 12]", "values": [{"measurement": "IC50", "value": "100 to 1000", "unit": "nM"}]}
{"compound": "CN1CCN2c3ccc(Nc4ncc(C(F)(F)F)c(N5CC6(CCN(C)C6)C5)n4)cc3COCC2C1", "note": "(centres unmarked) [Compound 20]", "values": [{"measurement": "IC50", "value": "> 1000", "unit": "nM"}]}
{"compound": "CN1CCN2c3ccc(Nc4ncc(C(F)(F)F)c(NC5CCN(C(=O)C6CCC6)CC5)n4)cc3COCC2C1", "note": "(centres unmarked) [Compound 21]", "values": [{"measurement": "IC50", "value": "100 to 1000", "unit": "nM"}]}
{"compound": "CN1CCN2c3ccc(Nc4ncc(C(F)(F)F)c(N5CC6(CN(C)C6)C5)n4)cc3COCC2C1", "note": "(centres unmarked) [Compound 22]", "values": [{"measurement": "IC50", "value": "> 1000", "unit": "nM"}]}
{"compound": "CN1CCN2c3ccc(Nc4ncc(C(F)(F)F)c(OCCCn5cccn5)n4)cc3COCC2C1", "note": "(centres unmarked) [Compound 23]", "values": [{"measurement": "IC50", "value": "100 to 1000", "unit": "nM"}]}
